Experimental data published in patent US11214594B2, “Antimicrobial peptide having synergistic antibacterial effect with antibiotics on multidrug resistant bacteria, and use thereof” (priority 2016, dated 2022).
Where a SMILES comes first, the peptide text is derived from it. [ ]: non-standard residue; d: D form.

What was measured:
MDRPA 2002 = type: cell-based, Pseudomonas aeruginosa
Method in brief: (§1)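 MIC read-out = lowest peptide level with no bacterial proliferation. Strains diluted in MH medium to 2×10^6 CFU; peptide twofold serial dilutions in MH added 1:1 in microtiter wells.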

MDRPA 2003 = type: cell-based, Pseudomonas aeruginosa
Method in brief: as §1

MDREC 1229 = experiment: MIC of antibiotic during combined treatment with antimicrobial peptide; type: cell-based, Escherichia coli
Method in brief: (§2)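 Antibiotic MIC came from antibiotic dilutions added to bacteria (2×10^6 CFU/ml, MH medium) already combined with peptide serially diluted 2:1 from its own MIC. Swapping the roles of the two agents gave the peptide MIC.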

MDRST 8007 = experiment: Minimal inhibitory concentration (MIC), single agent; type: cell-based, Salmonella typhimurium; conditions: agent alone
Method in brief: as §1

MDRAB 12035 = experiment: MIC of antibiotic during combined treatment with antimicrobial peptide; type: cell-based, Acinetobacter baumannii
Method in brief: as §2

MRSA 3126 = type: cell-based, Staphylococcus aureus; conditions: 3126
Method in brief: as §1

MRSA 3114 = type: cell-based, Staphylococcus aureus; conditions: 3114
Method in brief: as §1

[1] = tested on: multi-drug resistant bacteria; experiment: MIC, summary statements for multi-drug resistant bacteria; type: cell-based
Description: For the antibacterial activity, a minimal inhibitory concentration (MIC) of a peptide in which fungus bodies were not split in an MH medium with sufficient nutrients was measured.
Specifically, the strains described in the following [Table 2] were purchased and diluted with an MH medium such that the number of bacteria was 2×10^6 colony-forming units (CFUs), 100 μl of each of the diluted strains was aliquoted into a 96-well microtiter plate, and then 100 μl of a peptide solution diluted with the MH medium (solution diluted stepwise at 2: 1) was added to each well.

S. typhimurium = experiment: microbe, parasite or virus in culture; type: cell-based, Salmonella typhimurium
Method in brief: as §1

MDRAB 12036 = type: cell-based, Acinetobacter baumannii
Method in brief: as §1

MDREC 1238 = type: cell-based, Escherichia coli
Method in brief: as §1

[2] = peptide treatment concentration 1 μg/ml
[3] = peptide treatment concentration 2 μg/ml
[4] = peptide treatment concentration 4 μg/ml
[5] = peptide treatment concentration 6 μg/ml
[6] = peptide treatment concentration 8 μg/ml
[7] = peptide treatment concentration 16 μg/ml
[8] = peptide treatment concentration 32 μg/ml
[9] = peptide treatment concentration 64 μg/ml

CC[C@H](C)[C@H](NC(=O)[C@H](CCCCN)NC(=O)[C@H](Cc1c[nH]c2ccccc12)NC(=O)[C@@H](N)CCCNC(=N)N)C(=O)N[C@@H](Cc1ccccc1)C(=O)N[C@@H](CCCCN)C(=O)N[C@@H](CCCCN)C(=O)N[C@H](C(=O)N1CCC[C@H]1C(=O)N[C@@H](CCCCN)C(=O)N[C@@H](CC(C)C)C(=O)N[C@@H](CC(C)C)C(=O)N[C@@H](Cc1c[nH]cn1)C(=O)N[C@@H](CCC(=O)O)C(=O)N[C@@H](Cc1ccccc1)C(=O)N[C@@H](CCCCN)C(=O)N[C@@H](CCCCN)C(=O)N[C@@H](Cc1ccccc1)C(N)=O)[C@@H](C)CC [PapMA-12, RWK IFK KIP KLL HEF KKF-NH2] (H-RWKIFKKIPKLLHEFKKF-NH2; N-terminus assumed)
64 µg/mL: Minimal inhibitory concentration MIC (MDRPA 2002) | Minimal inhibitory concentration MIC (MDRPA 2003) | Linezolid MIC during combined treatment with peptide (MDRAB 12035; [3]) | Vancomycin MIC during combined treatment with peptide (MDRAB 12035; [3])
4 µg/mL: Antibiotic MIC, Erythromycin (MDREC 1229; [5]) | Vancomycin MIC during combined treatment with peptide (MDRAB 12035; [5])
8 µg/mL: Antibiotic MIC, Erythromycin (MDREC 1229; [4]) | Antibiotic MIC, Vancomycin (MDREC 1229; [6]) | Erythromycin MIC during combined treatment with peptide (MDRAB 12035; [3]) | Linezolid MIC during combined treatment with peptide (MDRAB 12035; [5])
128 µg/mL: Antibiotic MIC, Erythromycin (MDREC 1229; [2]) | Antibiotic MIC, Linezolid (MDREC 1229; [3]) | Antibiotic MIC, Vancomycin (MDREC 1229; [4]) | Linezolid MIC during combined treatment with peptide (MDRAB 12035; [2]) | Vancomycin MIC during combined treatment with peptide (MDRAB 12035; [2])
1 µg/mL: Antibiotic MIC, Erythromycin (MDREC 1229; [6]) | Erythromycin MIC during combined treatment with peptide (MDRAB 12035; [5])
2 µg/mL: Erythromycin MIC during combined treatment with peptide (MDRAB 12035; [4])
0 µg/mL: Antibiotic MIC, Erythromycin (MDREC 1229; [7]) | Antibiotic MIC, Linezolid (MDREC 1229; [7]) | Antibiotic MIC, Vancomycin (MDREC 1229; [7]) | Antibiotic MIC, Erythromycin (MDREC 1229; [8]) | Antibiotic MIC, Linezolid (MDREC 1229; [8]) | Antibiotic MIC, Vancomycin (MDREC 1229; [8]) | Antibiotic MIC, Erythromycin (MDREC 1229; [9]) | Antibiotic MIC, Linezolid (MDREC 1229; [9]) | Antibiotic MIC, Vancomycin (MDREC 1229; [9]) | Erythromycin MIC during combined treatment with peptide (MDRAB 12035; [6]) | Linezolid MIC during combined treatment with peptide (MDRAB 12035; [6]) | Vancomycin MIC during combined treatment with peptide (MDRAB 12035; [6]) | Erythromycin MIC during combined treatment with peptide (MDRAB 12035; [7]) | Linezolid MIC during combined treatment with peptide (MDRAB 12035; [7]) | Vancomycin MIC during combined treatment with peptide (MDRAB 12035; [7]) | Erythromycin MIC during combined treatment with peptide (MDRAB 12035; [8]) | Linezolid MIC during combined treatment with peptide (MDRAB 12035; [8]) | Vancomycin MIC during combined treatment with peptide (MDRAB 12035; [8]) | Erythromycin MIC during combined treatment with peptide (MDRAB 12035; [9]) | Linezolid MIC during combined treatment with peptide (MDRAB 12035; [9]) | Vancomycin MIC during combined treatment with peptide (MDRAB 12035; [9])
16 µg/mL: Antibiotic MIC, Linezolid (MDREC 1229; [5]) | Antibiotic MIC, Linezolid (MDREC 1229; [6]) | Minimal inhibitory concentration MIC (MDRST 8007) | Erythromycin MIC during combined treatment with peptide (MDRAB 12035; [2]) | Linezolid MIC during combined treatment with peptide (MDRAB 12035; [4]) | Vancomycin MIC during combined treatment with peptide (MDRAB 12035; [4]) | Minimal inhibitory concentration MIC (S. typhimurium) | Minimal inhibitory concentration MIC (MDRAB 12036) | Minimal inhibitory concentration MIC (MDREC 1238)
32 µg/mL: Antibiotic MIC, Erythromycin (MDREC 1229; [3]) | Antibiotic MIC, Linezolid (MDREC 1229; [4]) | Antibiotic MIC, Vancomycin (MDREC 1229; [5])
>128 µg/mL: Antibiotic MIC, Linezolid (MDREC 1229; [2]) | Antibiotic MIC, Vancomycin (MDREC 1229; [2]) | Antibiotic MIC, Vancomycin (MDREC 1229; [3]) | Minimal inhibitory concentration MIC (MRSA 3126) | Minimal inhibitory concentration MIC (MRSA 3114)
twice to four times higher: Antibacterial activity relative to PapMA-1 [1]

CC[C@H](C)[C@H](NC(=O)[C@H](CCCCN)NC(=O)[C@H](Cc1c[nH]c2ccccc12)NC(=O)[C@@H](N)CCCNC(=N)N)C(=O)N[C@@H](Cc1ccccc1)C(=O)N[C@@H](CCCCN)C(=O)N[C@@H](CCCCN)C(=O)N[C@H](C(=O)N[C@H](CCCCN)C(=O)N[C@@H](CCCCN)C(=O)N[C@@H](CC(C)C)C(=O)N[C@@H](CC(C)C)C(=O)N[C@@H](Cc1c[nH]cn1)C(=O)N[C@@H](CCCCN)C(=O)N[C@@H](C)C(=O)N[C@@H](CCCCN)C(=O)N[C@@H](CCCCN)C(=O)N[C@@H](Cc1c[nH]c2ccccc12)C(N)=O)[C@@H](C)CC [PapMA-18, RWK IFK KIk KLL HKA KKW-NH2] (H-RWKIFKKI[dK]KLLHKAKKW-NH2; N-terminus assumed)
16 µg/mL: Antibiotic MIC, Erythromycin (MDREC 1229; [4]) | Antibiotic MIC, Linezolid (MDREC 1229; [6]) | Antibiotic MIC, Vancomycin (MDREC 1229; [6]) | Erythromycin MIC during combined treatment with peptide (MDRAB 12035; [4]) | Linezolid MIC during combined treatment with peptide (MDRAB 12035; [6]) | Vancomycin MIC during combined treatment with peptide (MDRAB 12035; [6]) | Vancomycin MIC during combined treatment with peptide (MDRAB 12035; [7])
1 µg/mL: Antibiotic MIC, Erythromycin (MDREC 1229; [7])
8 µg/mL: Antibiotic MIC, Linezolid (MDREC 1229; [7]) | Antibiotic MIC, Vancomycin (MDREC 1229; [7]) | Linezolid MIC during combined treatment with peptide (MDRAB 12035; [7])
4 µg/mL: Antibiotic MIC, Erythromycin (MDREC 1229; [5]) | Antibiotic MIC, Linezolid (MDREC 1229; [8]) | Antibiotic MIC, Vancomycin (MDREC 1229; [8]) | Erythromycin MIC during combined treatment with peptide (MDRAB 12035; [5])
32 µg/mL: Minimal inhibitory concentration MIC (MDRPA 2002) | Antibiotic MIC, Erythromycin (MDREC 1229; [3]) | Antibiotic MIC, Linezolid (MDREC 1229; [5]) | Antibiotic MIC, Vancomycin (MDREC 1229; [5]) | Erythromycin MIC during combined treatment with peptide (MDRAB 12035; [2]) | Erythromycin MIC during combined treatment with peptide (MDRAB 12035; [3]) | Linezolid MIC during combined treatment with peptide (MDRAB 12035; [5]) | Vancomycin MIC during combined treatment with peptide (MDRAB 12035; [5]) | Minimal inhibitory concentration MIC (S. typhimurium) | Minimal inhibitory concentration MIC (MDRAB 12036)
64 µg/mL: Minimal inhibitory concentration MIC (MDRPA 2003) | Antibiotic MIC, Linezolid (MDREC 1229; [4]) | Minimal inhibitory concentration MIC (MDRST 8007) | Linezolid MIC during combined treatment with peptide (MDRAB 12035; [4]) | Minimal inhibitory concentration MIC (MDREC 1238)
2 µg/mL: Antibiotic MIC, Erythromycin (MDREC 1229; [6]) | Erythromycin MIC during combined treatment with peptide (MDRAB 12035; [6])
0 µg/mL: Antibiotic MIC, Erythromycin (MDREC 1229; [9]) | Antibiotic MIC, Linezolid (MDREC 1229; [9]) | Antibiotic MIC, Vancomycin (MDREC 1229; [9]) | Erythromycin MIC during combined treatment with peptide (MDRAB 12035; [8]) | Linezolid MIC during combined treatment with peptide (MDRAB 12035; [8]) | Vancomycin MIC during combined treatment with peptide (MDRAB 12035; [8]) | Erythromycin MIC during combined treatment with peptide (MDRAB 12035; [9]) | Linezolid MIC during combined treatment with peptide (MDRAB 12035; [9]) | Vancomycin MIC during combined treatment with peptide (MDRAB 12035; [9])
128 µg/mL: Vancomycin MIC during combined treatment with peptide (MDRAB 12035; [4])
>128 µg/mL: Antibiotic MIC, Erythromycin (MDREC 1229; [2]) | Antibiotic MIC, Linezolid (MDREC 1229; [2]) | Antibiotic MIC, Vancomycin (MDREC 1229; [2]) | Antibiotic MIC, Linezolid (MDREC 1229; [3]) | Antibiotic MIC, Vancomycin (MDREC 1229; [3]) | Antibiotic MIC, Vancomycin (MDREC 1229; [4]) | Linezolid MIC during combined treatment with peptide (MDRAB 12035; [2]) | Vancomycin MIC during combined treatment with peptide (MDRAB 12035; [2]) | Linezolid MIC during combined treatment with peptide (MDRAB 12035; [3]) | Vancomycin MIC during combined treatment with peptide (MDRAB 12035; [3]) | Minimal inhibitory concentration MIC (MRSA 3126) | Minimal inhibitory concentration MIC (MRSA 3114)
0.5 µg/mL: Antibiotic MIC, Erythromycin (MDREC 1229; [8]) | Erythromycin MIC during combined treatment with peptide (MDRAB 12035; [7])
